Measurements taken from ChEMBL document CHEMBL1201862, “PubChem BioAssay data set” (2004).
Calls of active or inactive are those of the source.

How the values were obtained:
[1] = biological target: Nuclear receptor subfamily 5 group A member 2 (Homo sapiens, UniProt O00482); format: functional, cell-based;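 note: HEK293T cells transfected with LRH-1 and a StAR promoter luciferase reporter; potency for inhibitors that lower LRH-1 driven reporter light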
Steroidogenic factor 1 = Steroidogenic factor 1 (Homo sapiens, UniProt Q13285); assay: Counterscreen for inverse agonists of the liver receptor homolog-1 (LRH-1; NR5A2): Luminescence-based cell-based high throughput dose response assay to identify inverse agonists of the Steroidogenic Factor 1 Nuclear Receptor (SF1; NR5A1).; format: functional
Steroidogenic factor 1, sequence (Q13285 whole entry): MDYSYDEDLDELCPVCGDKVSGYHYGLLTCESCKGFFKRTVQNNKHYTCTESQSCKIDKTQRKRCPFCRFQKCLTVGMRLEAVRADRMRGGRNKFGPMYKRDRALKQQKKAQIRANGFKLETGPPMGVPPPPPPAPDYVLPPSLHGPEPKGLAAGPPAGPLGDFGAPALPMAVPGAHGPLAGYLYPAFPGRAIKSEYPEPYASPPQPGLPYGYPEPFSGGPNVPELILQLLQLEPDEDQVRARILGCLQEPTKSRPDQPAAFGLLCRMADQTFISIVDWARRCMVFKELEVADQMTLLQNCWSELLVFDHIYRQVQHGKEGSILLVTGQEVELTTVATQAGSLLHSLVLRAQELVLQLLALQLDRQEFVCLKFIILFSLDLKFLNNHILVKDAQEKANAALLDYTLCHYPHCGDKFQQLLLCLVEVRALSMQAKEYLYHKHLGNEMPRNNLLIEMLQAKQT

[2] = StAR promoter reporter inhibition counter-screen, dose response, counter-screen for LRH-1 inverse agonist project, cell-based, luminescence, luciferase reporter (AID 651969); format: functional
Beta-galactosidase = Beta-galactosidase (Escherichia coli, UniProt Q8VNN2); assay: Dose response counterscreen for EBI2 assay utilizing the enzyme, b-galactosidase.; format: functional
Beta-galactosidase, sequence (Q8VNN2 whole entry): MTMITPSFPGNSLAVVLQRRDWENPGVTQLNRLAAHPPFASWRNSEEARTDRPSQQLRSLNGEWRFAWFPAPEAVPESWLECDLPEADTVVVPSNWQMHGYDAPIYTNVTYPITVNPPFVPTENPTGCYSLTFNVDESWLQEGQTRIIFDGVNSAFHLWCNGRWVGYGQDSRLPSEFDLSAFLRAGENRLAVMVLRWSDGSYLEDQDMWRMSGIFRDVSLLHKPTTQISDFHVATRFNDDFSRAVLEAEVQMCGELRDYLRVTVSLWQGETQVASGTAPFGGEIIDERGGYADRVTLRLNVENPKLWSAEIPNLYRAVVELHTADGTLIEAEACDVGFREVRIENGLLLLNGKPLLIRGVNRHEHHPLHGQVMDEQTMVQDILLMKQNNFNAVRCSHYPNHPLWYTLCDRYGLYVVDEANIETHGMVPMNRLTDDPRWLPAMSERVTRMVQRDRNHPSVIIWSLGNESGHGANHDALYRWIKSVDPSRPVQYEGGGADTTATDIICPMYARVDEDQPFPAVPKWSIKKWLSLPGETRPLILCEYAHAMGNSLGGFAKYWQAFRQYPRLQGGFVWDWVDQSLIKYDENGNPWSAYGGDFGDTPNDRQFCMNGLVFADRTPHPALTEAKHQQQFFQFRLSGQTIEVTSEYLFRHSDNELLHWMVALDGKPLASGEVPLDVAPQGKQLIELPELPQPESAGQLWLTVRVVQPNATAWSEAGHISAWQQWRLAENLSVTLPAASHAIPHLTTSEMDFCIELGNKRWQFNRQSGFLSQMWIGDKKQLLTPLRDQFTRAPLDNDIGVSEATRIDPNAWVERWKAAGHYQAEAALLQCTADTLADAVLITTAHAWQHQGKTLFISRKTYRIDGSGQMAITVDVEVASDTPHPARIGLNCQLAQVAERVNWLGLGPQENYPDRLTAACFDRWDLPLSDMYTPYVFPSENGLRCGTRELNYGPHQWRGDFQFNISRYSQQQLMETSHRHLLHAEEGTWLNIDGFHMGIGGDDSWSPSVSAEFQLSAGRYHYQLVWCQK

BJ [3] = assay: cytotoxicity toward BJ-TERT fibroblasts, dose response, cell-based, RAS-independent, luminescence (AID 1933); format: functional; details: Homo sapiens
BJ [4] = assay: cells; format: functional, cell-based; details: Homo sapiens
BJ [5] = assay: cytotoxicity toward BJ-TERT-LT-ST fibroblasts, dose response, cell-based, RAS-independent, luminescence (AID 1935); format: functional; details: Homo sapiens;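 note: BJ fibroblasts immortalized with TERT plus LT and ST oncogenes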
[6] = cytotoxicity toward DRD oncogenic fibroblasts, dose response, cell-based, non-viral oncogenic, luminescence (AID 1934); format: functional; details: Homo sapiens
BJ [7] = assay: cytotoxicity toward Ras-transformed BJeLR fibroblasts, dose response, cell-based, alamar blue fluorescence, cherrypicked samples (AID 2631); format: functional; details: Homo sapiens;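 note: confirmatory dose-response assay in RAS-dependent BJ fibroblasts engineered with TERT, LT and ST, with cytotoxicity read by fluorescence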
[8] = inhibitors of HIV Env-driven cell fusion, dose response, cherry-pick (AID 652057); format: functional, cell-based
[9] = CEM21 lymphoblast cell cytotoxicity, dose response, cytotoxicity control for viral fusion inhibitor project, CellTiter-Glo luminescence, cherry-picked (AID 652042); format: functional, cell-based;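 note: potency for signal decrease meaning cytotoxicity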
[10] = off-target signal loss in HeLa-CEM21 co-culture – HeLa F-luc CTL cells, cherry-picked, counter-screen for HIV-1 Env fusion inhibitor project, dose response (AID 652040); format: functional, cell-based;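 note: potency for signal decrease marking cytotoxic or nonspecific inhibition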
[11] = inhibitors of clade B AD8 Env fusion, dose response, cell-based, cherry-pick (AID 652062); format: functional;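 note: luciferase signal from cell-cell fusion driven by HIV-1 clade B AD8 Env; potency is for inhibitors of fusion seen as a drop in luminescence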
[12] = biological target: Glucose-6-phosphate 1-dehydrogenase (Homo sapiens, UniProt P11413); assay: human G6PD enzyme inhibitors, dose response, selectivity assay for P. falciparum G6PD inhibitor project, biochemical, fluorescence (AID 504792); format: functional
Glucose-6-phosphate 1-dehydrogenase, sequence (P11413 whole entry): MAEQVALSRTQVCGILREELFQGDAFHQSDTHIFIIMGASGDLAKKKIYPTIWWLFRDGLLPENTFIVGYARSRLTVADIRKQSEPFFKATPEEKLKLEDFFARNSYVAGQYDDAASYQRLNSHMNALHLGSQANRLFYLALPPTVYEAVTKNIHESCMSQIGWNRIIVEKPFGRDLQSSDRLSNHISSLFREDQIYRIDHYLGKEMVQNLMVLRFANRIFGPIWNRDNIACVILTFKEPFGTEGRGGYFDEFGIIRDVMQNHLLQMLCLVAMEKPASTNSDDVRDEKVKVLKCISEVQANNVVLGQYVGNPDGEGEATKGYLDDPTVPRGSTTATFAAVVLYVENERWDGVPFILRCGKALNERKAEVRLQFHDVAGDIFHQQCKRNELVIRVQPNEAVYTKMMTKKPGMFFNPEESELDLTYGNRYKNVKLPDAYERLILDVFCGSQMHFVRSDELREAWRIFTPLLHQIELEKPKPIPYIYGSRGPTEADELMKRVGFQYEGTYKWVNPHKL

[13] = HeLa cell cytotoxicity, dose response, cytotoxicity control for MgcRacGAP inhibitor project (AID 624300); format: functional
[14] = biological target: T1, Rac GTPase-activating protein 1 (Homo sapiens, UniProt Q9H0H5); assay: MgcRacGAP GTPase-activating activity inhibitors, confirmation, biochemical, ADP Hunter fluorescence, primary and confirmatory (AID 624330); format: functional
T1 sequence (Q9H0H5 whole entry): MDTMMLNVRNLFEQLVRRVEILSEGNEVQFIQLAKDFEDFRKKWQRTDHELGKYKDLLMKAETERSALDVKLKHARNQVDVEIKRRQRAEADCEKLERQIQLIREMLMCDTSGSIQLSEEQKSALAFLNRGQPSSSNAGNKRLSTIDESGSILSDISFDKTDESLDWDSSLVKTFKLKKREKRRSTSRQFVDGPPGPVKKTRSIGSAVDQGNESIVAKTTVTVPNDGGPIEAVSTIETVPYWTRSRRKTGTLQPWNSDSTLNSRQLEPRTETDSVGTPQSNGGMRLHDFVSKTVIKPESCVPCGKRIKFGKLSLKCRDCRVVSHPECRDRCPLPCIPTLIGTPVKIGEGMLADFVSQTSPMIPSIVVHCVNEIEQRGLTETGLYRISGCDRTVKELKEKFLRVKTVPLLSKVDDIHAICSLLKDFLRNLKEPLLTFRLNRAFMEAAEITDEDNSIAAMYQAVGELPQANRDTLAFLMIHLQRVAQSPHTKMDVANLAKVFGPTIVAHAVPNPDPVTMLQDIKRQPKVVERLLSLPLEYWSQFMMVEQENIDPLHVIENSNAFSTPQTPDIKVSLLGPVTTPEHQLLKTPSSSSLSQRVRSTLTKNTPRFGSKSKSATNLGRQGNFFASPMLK

Mu-type opioid receptor = Mu-type opioid receptor (Homo sapiens, UniProt P35372); format: functional, cell-based;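 note: U2OS cells with beta-arrestin recruitment to OPRM1 by beta-gal complementation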
Mu-type opioid receptor, sequence (P35372 whole entry): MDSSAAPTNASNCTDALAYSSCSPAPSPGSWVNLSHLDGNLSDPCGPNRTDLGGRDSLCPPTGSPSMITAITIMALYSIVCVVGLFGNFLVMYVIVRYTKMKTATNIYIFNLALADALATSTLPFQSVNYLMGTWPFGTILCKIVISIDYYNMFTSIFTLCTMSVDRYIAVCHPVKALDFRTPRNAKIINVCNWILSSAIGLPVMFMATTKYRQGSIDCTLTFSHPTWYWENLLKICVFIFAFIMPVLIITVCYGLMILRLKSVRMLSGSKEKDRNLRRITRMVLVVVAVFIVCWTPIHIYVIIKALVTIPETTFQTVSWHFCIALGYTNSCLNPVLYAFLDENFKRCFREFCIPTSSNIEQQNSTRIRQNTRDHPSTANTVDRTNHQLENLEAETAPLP

[15] = biological target: 5-hydroxytryptamine receptor 2A (Mus musculus, UniProt P35363); format: functional, cell-based;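 note: CHO-K1 cells with tagged receptor and beta-arrestin; agonist potency measured as compound-induced activation of the receptor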
5-hydroxytryptamine receptor 2A, sequence (P35363 whole entry, the tested form may be a part): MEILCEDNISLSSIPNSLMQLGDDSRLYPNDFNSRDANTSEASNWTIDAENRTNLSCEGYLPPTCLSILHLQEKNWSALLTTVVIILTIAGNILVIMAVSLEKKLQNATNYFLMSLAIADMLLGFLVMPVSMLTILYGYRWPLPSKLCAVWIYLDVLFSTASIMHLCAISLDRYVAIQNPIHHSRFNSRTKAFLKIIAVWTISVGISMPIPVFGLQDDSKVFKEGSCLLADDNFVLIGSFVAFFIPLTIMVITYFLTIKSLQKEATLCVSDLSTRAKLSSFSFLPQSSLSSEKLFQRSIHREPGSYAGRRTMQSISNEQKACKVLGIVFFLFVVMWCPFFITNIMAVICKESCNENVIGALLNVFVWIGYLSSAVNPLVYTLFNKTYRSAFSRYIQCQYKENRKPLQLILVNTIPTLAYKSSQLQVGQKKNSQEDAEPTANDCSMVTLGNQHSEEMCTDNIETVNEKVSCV

[16] = biological target: T2, RNA-binding protein pos-1 (Caenorhabditis elegans, UniProt G5EF15); assay: inhibitors of POS-1/mex-3 RNA binding, dose response, biochemical, fluorescence polarization (AID 1964);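 note: purified POS-1 fused to maltose binding protein made in E. coli; potency of compounds blocking POS-1 binding to fluorescent RNA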
T2 sequence (G5EF15 whole entry): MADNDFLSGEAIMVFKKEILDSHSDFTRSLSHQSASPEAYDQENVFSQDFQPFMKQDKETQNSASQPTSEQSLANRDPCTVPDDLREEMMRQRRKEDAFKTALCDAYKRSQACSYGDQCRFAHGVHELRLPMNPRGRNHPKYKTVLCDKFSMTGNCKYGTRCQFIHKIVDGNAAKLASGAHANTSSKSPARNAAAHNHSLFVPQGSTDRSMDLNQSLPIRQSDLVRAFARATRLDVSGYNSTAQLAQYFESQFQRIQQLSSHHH

[17] = biological target: T3, Zinc finger protein mex-5 (Caenorhabditis elegans, UniProt Q9XUB2); assay: MEX-5/TCR-2 RNA interaction inhibitors, dose response, biochemical, C. elegans, fluorescence polarization (AID 1960)
T3 sequence (Q9XUB2 whole entry): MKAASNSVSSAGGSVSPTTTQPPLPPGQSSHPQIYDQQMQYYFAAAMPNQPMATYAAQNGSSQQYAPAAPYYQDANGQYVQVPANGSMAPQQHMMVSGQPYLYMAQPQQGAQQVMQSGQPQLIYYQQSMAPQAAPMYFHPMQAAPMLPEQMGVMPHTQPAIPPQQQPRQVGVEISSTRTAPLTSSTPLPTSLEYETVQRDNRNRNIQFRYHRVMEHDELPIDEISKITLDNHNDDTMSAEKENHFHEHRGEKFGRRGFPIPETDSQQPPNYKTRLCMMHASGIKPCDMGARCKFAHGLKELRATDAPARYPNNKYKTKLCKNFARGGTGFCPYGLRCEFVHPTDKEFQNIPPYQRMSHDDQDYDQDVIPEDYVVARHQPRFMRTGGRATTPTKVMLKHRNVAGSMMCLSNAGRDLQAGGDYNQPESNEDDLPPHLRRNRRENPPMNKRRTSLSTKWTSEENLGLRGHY

[18] = Luminescence Cell-Based Dose Response HTS to Identify Activators of Luciferase Translation or Activity in H4 […] Cells. [Related pubchem assays: 1829 (Project Summary), 1814 (Primary HTS)]; format: functional
H4 = assay: Luminescence Cell-Based Dose Response HTS to Identify Activators of 5'UTR Stem-Loop Driven Prion Protein mRNA Translation in H4 Neuroglioblastoma Cells. [Related pubchem assays: 1829 (Project Summary), 1814 (Primary HTS)]; format: functional; details: Homo sapiens
[19] = DNA binding of candidate compounds, dose response, artefact control for RAD54 inhibitor project, biochemical, fluorescence polarization, cherry-pick (AID 651673); format: functional
[20] = biological target: T4, DNA repair and recombination protein RAD54-like (Homo sapiens, UniProt Q92698); assay: inhibitors of human RAD54 branch migration, confirmation, biochemical, fluorescence, cherry-picked samples, dose series (AID 651657); format: functional
T4 sequence (Q92698 whole entry): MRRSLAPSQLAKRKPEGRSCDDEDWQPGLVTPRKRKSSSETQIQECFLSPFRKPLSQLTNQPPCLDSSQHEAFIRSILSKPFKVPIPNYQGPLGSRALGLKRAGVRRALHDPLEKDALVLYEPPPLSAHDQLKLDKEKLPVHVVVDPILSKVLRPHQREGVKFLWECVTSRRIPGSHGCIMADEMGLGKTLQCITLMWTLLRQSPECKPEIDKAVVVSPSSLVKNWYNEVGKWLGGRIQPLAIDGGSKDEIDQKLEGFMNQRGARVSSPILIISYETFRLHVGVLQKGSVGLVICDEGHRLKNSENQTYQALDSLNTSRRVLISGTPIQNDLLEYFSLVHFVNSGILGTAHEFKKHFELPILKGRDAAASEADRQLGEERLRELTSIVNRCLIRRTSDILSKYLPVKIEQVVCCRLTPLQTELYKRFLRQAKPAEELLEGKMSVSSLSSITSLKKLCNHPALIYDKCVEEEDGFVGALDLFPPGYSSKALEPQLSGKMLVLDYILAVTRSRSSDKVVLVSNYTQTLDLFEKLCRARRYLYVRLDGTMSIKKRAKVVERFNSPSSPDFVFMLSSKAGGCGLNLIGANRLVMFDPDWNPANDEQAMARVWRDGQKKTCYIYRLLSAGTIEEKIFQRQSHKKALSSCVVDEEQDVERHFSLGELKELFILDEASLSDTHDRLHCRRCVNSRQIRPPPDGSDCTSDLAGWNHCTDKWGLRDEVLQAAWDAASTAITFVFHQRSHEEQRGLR

[21] = biological target: SWI/SNF-related matrix-associated actin-dependent regulator of chromatin subfamily A member 2 (Homo sapiens, UniProt P51531); assay: Luminescence-based cell-based high throughput dose response assay to identify activators of the function of SWI/SNF related, matrix associated, actin dependent regulator of chromatin, subfamily a, member 2 (SMARCA2, BRM).; format: functional
SWI/SNF-related matrix-associated actin-dependent regulator of chromatin subfamily A member 2, sequence (P51531 whole entry): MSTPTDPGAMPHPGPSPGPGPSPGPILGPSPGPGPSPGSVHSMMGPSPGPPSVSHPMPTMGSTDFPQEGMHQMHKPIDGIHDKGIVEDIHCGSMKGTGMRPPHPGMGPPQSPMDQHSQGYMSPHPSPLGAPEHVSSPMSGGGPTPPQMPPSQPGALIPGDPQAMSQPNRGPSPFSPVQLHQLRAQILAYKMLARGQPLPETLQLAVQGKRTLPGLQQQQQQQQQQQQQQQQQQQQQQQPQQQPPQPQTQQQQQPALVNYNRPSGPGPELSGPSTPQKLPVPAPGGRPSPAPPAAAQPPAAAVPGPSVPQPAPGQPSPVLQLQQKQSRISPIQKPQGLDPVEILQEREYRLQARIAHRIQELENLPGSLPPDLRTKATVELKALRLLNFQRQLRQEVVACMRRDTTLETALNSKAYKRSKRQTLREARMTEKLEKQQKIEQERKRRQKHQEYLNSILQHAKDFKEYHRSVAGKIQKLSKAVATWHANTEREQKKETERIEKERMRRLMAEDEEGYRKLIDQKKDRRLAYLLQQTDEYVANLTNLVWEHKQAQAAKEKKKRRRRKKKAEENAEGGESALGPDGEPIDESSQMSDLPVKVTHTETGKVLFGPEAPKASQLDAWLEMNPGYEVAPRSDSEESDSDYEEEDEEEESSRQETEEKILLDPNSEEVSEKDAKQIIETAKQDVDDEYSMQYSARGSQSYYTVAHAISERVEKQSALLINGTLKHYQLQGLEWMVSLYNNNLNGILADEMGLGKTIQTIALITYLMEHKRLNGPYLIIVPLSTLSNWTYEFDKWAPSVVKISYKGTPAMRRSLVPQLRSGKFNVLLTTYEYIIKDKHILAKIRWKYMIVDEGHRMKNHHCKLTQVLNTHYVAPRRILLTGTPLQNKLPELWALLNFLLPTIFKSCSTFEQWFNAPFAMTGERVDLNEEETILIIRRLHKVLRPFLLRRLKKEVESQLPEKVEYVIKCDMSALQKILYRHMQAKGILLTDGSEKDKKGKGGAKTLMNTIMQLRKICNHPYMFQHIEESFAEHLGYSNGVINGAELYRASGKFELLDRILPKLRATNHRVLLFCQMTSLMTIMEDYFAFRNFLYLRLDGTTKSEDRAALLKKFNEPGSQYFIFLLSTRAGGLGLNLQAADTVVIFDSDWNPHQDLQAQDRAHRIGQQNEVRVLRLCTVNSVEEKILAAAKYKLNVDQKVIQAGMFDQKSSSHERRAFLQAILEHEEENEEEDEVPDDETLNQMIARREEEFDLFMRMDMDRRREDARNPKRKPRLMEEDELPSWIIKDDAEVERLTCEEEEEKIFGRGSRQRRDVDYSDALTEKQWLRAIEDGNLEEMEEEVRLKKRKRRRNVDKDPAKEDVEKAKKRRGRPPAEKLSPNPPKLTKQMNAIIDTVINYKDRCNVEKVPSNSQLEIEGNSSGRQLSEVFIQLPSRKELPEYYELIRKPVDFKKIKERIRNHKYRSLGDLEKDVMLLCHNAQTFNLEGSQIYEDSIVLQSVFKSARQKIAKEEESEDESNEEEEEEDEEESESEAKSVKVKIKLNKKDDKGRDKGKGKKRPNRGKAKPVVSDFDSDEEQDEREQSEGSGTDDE

[22] = Counterscreen for activators of the function of SWI/SNF related, matrix associated, actin dependent regulator of chromatin, subfamily a, member 2 (SMARCA2, BRM): Luminescence-based cell-based high throughput dose response assay to identify non-selective compounds using the VP16 reporter assay.; format: functional
[23] = biological target: T5, DNA repair protein RAD52 homolog (Homo sapiens, UniProt P43351); format: functional, biochemical
T5 sequence (P43351 whole entry): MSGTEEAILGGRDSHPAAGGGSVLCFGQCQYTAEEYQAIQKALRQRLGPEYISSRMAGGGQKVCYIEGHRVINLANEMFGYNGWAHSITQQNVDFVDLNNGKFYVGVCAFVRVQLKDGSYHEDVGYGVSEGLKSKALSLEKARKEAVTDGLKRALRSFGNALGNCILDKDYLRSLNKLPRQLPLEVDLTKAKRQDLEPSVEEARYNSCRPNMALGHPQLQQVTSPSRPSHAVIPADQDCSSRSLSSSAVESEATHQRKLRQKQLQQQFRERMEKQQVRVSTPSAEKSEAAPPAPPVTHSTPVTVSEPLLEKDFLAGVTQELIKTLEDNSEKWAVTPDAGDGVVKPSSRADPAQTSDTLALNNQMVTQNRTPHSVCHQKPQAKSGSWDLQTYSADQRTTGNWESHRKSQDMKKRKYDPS

cells [24] = format: functional, cell-based
cells [25] = format: functional, cell-based; remark: listed apart in the source

Nuclear receptor subfamily 5 group A member 2, sequence (O00482 whole entry): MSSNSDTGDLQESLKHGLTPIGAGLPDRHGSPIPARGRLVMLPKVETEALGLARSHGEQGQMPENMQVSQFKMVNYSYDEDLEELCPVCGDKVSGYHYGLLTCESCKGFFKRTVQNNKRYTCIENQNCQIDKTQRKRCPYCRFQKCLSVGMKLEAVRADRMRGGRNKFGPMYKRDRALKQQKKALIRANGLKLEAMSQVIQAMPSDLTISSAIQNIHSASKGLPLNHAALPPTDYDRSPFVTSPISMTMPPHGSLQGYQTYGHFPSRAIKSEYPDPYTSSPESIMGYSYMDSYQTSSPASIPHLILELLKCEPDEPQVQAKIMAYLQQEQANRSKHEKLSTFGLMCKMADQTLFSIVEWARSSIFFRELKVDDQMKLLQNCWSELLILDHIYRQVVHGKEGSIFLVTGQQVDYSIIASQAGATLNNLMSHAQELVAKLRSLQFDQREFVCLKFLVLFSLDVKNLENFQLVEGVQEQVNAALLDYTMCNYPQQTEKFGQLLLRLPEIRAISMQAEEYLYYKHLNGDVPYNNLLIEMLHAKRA

SMILES: COc1ccc(CCNC(=O)COC(=O)C23CC4CC(CC(C4)C2)C3)cc1
- IC50 [1]: 28.6 µM (inactive)
- IC50 (Steroidogenic factor 1): 2.17 µM (active)
- IC50 [2]: 35.9 µM (inactive)

SMILES: O=C(/C=C/c1ccc(Cl)cc1)N1CCN(c2ccccc2[N+](=O)[O-])CC1
- IC50 (Beta-galactosidase): > 80 µM (inactive)

SMILES: COc1ccc2nc(O)c(CN(Cc3cccs3)S(=O)(=O)c3cccc4nsnc34)cc2c1
- EC50 (BJ [3]): 21.1 µM (active)
- EC50 (BJ [4]): 25.6 µM (inconclusive)
- EC50 (BJ [5]): > 150 µM (not active)
- EC50 [6]: 14.5 µM (active)
- EC50 (BJ [7]): 1.62 µM (active)
- AC50 [8]: 4.12 µM (active)
- AC50 [9]: 38.4 µM (active)
- AC50 [10]: 16.9 µM (active)
- AC50 [11]: 3.31 µM (active)

SMILES: Cn1c(=O)c2c(nc(S)n2CCCc2ccccc2)n(C)c1=O
- IC50 [12]: 60.7 µM (inactive)
- CC50 [13]: 100 µM (active)
- IC50 [14]: 16.1 µM (active)

SMILES: Cc1cccc(CN2CCN(c3ccccn3)CC2)c1
- EC50 (Mu-type opioid receptor): 92.5 µM (inactive)
- EC50 [15]: 0.128 µM (active)

SMILES: Cc1nn(Cc2ccccc2)c(C)c1C(=O)OCC(=O)Nc1ccccc1SCC#N
- IC50 [1]: 1.33 µM (active)
- IC50 (Steroidogenic factor 1): 2.41 µM (active)
- IC50 [2]: 35.9 µM (inactive)

SMILES: O=C1NC(=O)N(c2ccccc2)C(=O)/C1=C/c1coc2ccc(O)cc2c1=O
- EC50 [16]: > 300 µM (not active)
- EC50 [17]: > 300 µM (not active)
- CC50 [13]: 100 µM (active)
- IC50 [14]: 110 µM (active)

SMILES: CCN(CC)CCCNc1nc2ccccc2c2nc(-c3ccncc3)nn12
- EC50 [18]: 16.5 µM (active)
- EC50 (H4): > 120 µM (not active)
- AC50 [19]: 40.4 µM (active)
- AC50 [20]: 6.19 µM (active)
- EC50 [21]: 32.5 µM (inactive)
- EC50 [22]: > 91.2 µM (inactive)
- AC50 [23]: 10.4 µM (active)

SMILES: CN(Cc1ccc(F)cc1)C(=O)COc1ccc2ccccc2c1
- IC50 (Beta-galactosidase): > 80 µM (inactive)

SMILES: Oc1cc(C=NNc2ccccc2)nc(O)n1
- IC50 (cells [24]): > 29.9 µM (inactive)
- EC50 (cells [25]): > 29.9 µM (inactive)

SMILES: Cc1cc(C)c2c(=O)n3c(nc2c1)C(CC(C)C)NC(=O)c1cc2ccccc2cc1-3 (stereo unspecified)
- IC50 (Beta-galactosidase): > 80 µM (inactive)
